Test results taken from patent publication US20240309003A1, “HETEROCYCLIC COMPOUNDS AS TRIGGERING RECEPTOR EXPRESSED ON MYELOID CELLS 2 AGONISTS AND METHODS OF USE” (Vigil Neuroscience, Inc., priority 2021, published 2024).

Target: T1, human TREM2 (Homo sapiens, UniProt Q9NZC2)
T1 construct: expressed in transfected cells; host or cells: HEK293T
Assay: TREM2 agonist potency by cellular phosphorylation of Syk (AlphaLisa) in HEK293T-hTREM2 cells
Type: cell-based
Method: In Vitro Measurement of Triggering Receptor Expressed on Myeloid Cells 2 Activity Using Cellular Phosphorylation of Spleen Tyrosine Kinase (“Syk”) Assays
Measurement of TREM2 agonist potency was done using a HEK cell line expressing human TREM2 and DAP12 (HEK293T-hTREM2 cells). Binding of small molecules to, and activation of, TREM2 increases the phosphorylation of Syk. The resultant levels of Syk phosphorylation are measured using a commercial AlphaLisa reagent kit. To perform the assay, HEK-hTREM2 cells were plated at 14,000 cells per well in a 384 well plate, in 25 μL of complete growth media and incubated at 37° C., 5% CO2 for 20-24 hours.
Prior to the assay, test compounds were diluted in the 384 well plates in assay buffer and allowed to equilibrate for 30 minutes. Growth media was removed from cell plates by inversion on blotting paper, and 25 μL of test articles in assay buffer was added to cells. Cells were incubated for 45 minutes at room temperature. After 45 minutes, assay buffer was removed and 10 μL of lysis buffer was added. Plates were shaken for 20 minutes at 350 RPM at room temperature. After complete lysis, AlphaLisa reagents were added to the lysate, and fluourescence intensity was measured using a Perkin Elmer Envision plate reader. Intensities were used to generate a standard curve, and % activation was calculated. Curve fitting was performed using Prism v9 software, log(agonist) vs response-variable slope (four parameters), and EC50s were calculated from the curve fit.
This assay may be used to test any of the compounds described herein to assess and characterize a compound's ability to act as an agonist of TREM2.

[1] = HEK293 cells expressing human TREM2 and DAP12, Table D-2
[2] = HEK293 cells expressing human TREM2 and DAP12, Table D

T1 sequence (Q9NZC2 19-230): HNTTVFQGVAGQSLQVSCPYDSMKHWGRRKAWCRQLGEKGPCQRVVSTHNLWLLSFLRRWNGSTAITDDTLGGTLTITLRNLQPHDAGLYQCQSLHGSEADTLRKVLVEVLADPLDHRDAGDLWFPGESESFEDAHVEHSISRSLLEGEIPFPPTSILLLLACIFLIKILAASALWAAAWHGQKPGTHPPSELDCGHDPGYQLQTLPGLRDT
T1 sequence (O43914 22-113 partner): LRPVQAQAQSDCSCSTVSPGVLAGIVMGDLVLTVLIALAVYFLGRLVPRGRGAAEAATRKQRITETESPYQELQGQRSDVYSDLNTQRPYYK

Row | SMILES | EC50 [1] [nM] | EC50 [2] [nM]
1 | Cc1nc2nc(N3C[C@@H](C)O[C@@H](c4cnn(C5CC5)c4)C3)nc(-c3ccc(F)cc3F)c2nc1C(F)F [Example I-1609, (2S,6R)-2-(1-cyclopropylpyrazol-4-yl)-4-[6-(difluoromethyl)-4-(2,4-difluorophenyl)-7-methyl-pteridin-2-yl]-6-methyl-morpholine] | < 50 | 
2 | Cc1nc2cc([C@H]3CCO[C@@H](c4cnn(C5CC5)c4)C3)nc(-c3ccc(F)cc3F)c2nc1CO [Example I-1119, (7-((2R,4S)-2-(1-cyclopropyl-1H-pyrazol-4-yl)tetrahydro-2H-pyran-4-yl)-5-(2,4-difluorophenyl)-2-methylpyrido[3,4-b]pyrazin-3-yl)methanol] | 50 to 500 | 
3 | [2H]C([2H])([2H])c1nc2nc([C@H]3CCO[C@@H](c4cnn(C([2H])([2H])[2H])c4)C3)nc(-c3ccc(C)cc3)c2nc1C([2H])([2H])[2H] [Example 173, 6,7-bis(methyl-d3)-2-((2R,4S)-2-(1-(methyl-d3)-1H-pyrazol-4-yl)tetrahydro-2H-pyran-4-yl)-4-(p-tolyl)pteridine] |  | 50 to 500
4 | [2H]C1([2H])C[C@@H](c2nc(-c3ccc(F)cc3F)c3nc(C)c(C)nc3n2)C[C@@H](c2cnn(C3CC3)c2)O1 (single isomer, unassigned) [Example 170] |  | < 50
5 | Cc1nc2nc(C3CCOC(c4nc(C5CC5)n[nH]4)C3)nc(-c3ccc(F)cc3F)c2nc1C (stereo not shown) [Example 169] |  | 500 to 3000
6 | Cc1nc2cc([C@H]3CCO[C@@H](c4cnn(C5CC5)c4)C3)nc(-c3ccc(C(F)(F)F)cc3F)c2nc1C [Example 211, 7-((2R,4S)-2-(1-cyclopropyl-1H-pyrazol-4-yl)tetrahydro-2H-pyran-4-yl)-5-(2-fluoro-4-(trifluoromethyl)phenyl)-2,3-dimethylpyrido[3,4-b]pyrazine] |  | < 50
7 | Cc1nc2nc([C@H]3CCO[C@@H](c4cnn(C5CC5)c4)C3)nc(-c3ccc4c(c3)CCC4)c2nc1C (stereo in doubt) [Example I-1170, 4-indan-5-yl-6,7-dimethyl-2-[(2R,4S)-2-(1-cyclopropylpyrazol-4-yl)tetrahydropyran-4-yl]pteridine] | < 50 | 
8 | Cc1nc2cc([C@H]3CCO[C@@H](c4cnn(C5CC5)c4)C3)nc(-c3ccc(F)cc3F)c2nc1COCC1COC1 [Example I-1505, 7-((2R,4S)-2-(1-cyclopropyl-1H-pyrazol-4-yl)tetrahydro-2H-pyran-4-yl)-5-(2,4-difluorophenyl)-2-methyl-3-((oxetan-3-ylmethoxy)methyl)pyrido[3,4-b]pyrazine] | 500 to 3000 | 
9 | Cc1nc2nc(N3CCO[C@@H](c4cnn(C5CC5)c4)C3)nc(-c3ccc4c(c3)CC4)c2nc1C [Example 240, (S)-4-(4-(bicyclo[4.2.0]octa-1,3,5-trien-3-yl)-6,7-dimethylpteridin-2-yl)-2-(1-cyclopropyl-1H-pyrazol-4-yl)morpholine] |  | 50 to 500
10 | CCc1nc2c(-c3ccc(F)cc3F)nc([C@H]3CCO[C@@H](c4cnn(C5CC5)c4)C3)cc2nc1C [Example I-1557, 7-((2R,4S)-2-(1-cyclopropyl-1H-pyrazol-4-yl)tetrahydro-2H-pyran-4-yl)-5-(2,4-difluorophenyl)-3-ethyl-2-methylpyrido[3,4-b]pyrazine] | 50 to 500 | 
11 | Cc1nc2nc([C@@H]3CCO[C@H](c4cnn(C5CCC5)c4)C3)nc(-c3ccc(F)cc3F)c2nc1C [Example 147, 2-((2S,4R)-2-(1-cyclobutyl-1H-pyrazol-4-yl)tetrahydro-2H-pyran-4-yl)-4-(2,4-difluorophenyl)-6,7-dimethylpteridine] |  | 50 to 500
12 | Cc1cc([C@H]2C[C@@H](c3cc(-c4ccc(Cl)c(F)c4F)c4cc(C)c(C)nc4n3)CCO2)ccn1 [Example 186, 5-(4-chloro-2,3-difluorophenyl)-2,3-dimethyl-7-((2R,4S)-2-(2-methylpyridin-4-yl)tetrahydro-2H-pyran-4-yl)-1,8-naphthyridine] |  | 500 to 3000
13 | Cc1cc([C@@H]2C[C@H](c3cc4nc(C)c(C)cc4c(-c4ccc(F)cc4F)n3)CCO2)ccn1 [Example 226, 5-(2,4-difluorophenyl)-2,3-dimethyl-7-((2S,4R)-2-(2-methylpyridin-4-yl)tetrahydro-2H-pyran-4-yl)-1,6-naphthyridine] |  | 500 to 3000
14 | [2H][C@]1(c2cnn(C3CC3)c2)C[C@@H](c2nc(-c3ccc(F)cc3F)c3nc(C)c(C)nc3n2)CCO1 [Example 182, 2-((2R,4S)-2-(1-cyclopropyl-1H-pyrazol-4-yl)tetrahydro-2H-pyran-4-yl-2-d)-4-(2,4-difluorophenyl)-6,7-dimethylpteridine] |  | < 50
15 | Cc1cc2c(-c3ccc(Cl)cc3F)nc([C@@H]3CCO[C@@H](c4cnn(C5CC5)c4)C3)nc2nc1C [Example 216, 4-(4-chloro-2-fluorophenyl)-2-((2R,4R)-2-(1-cyclopropyl-1H-pyrazol-4-yl)tetrahydro-2H-pyran-4-yl)-6,7-dimethylpyrido[2,3-d]pyrimidine] |  | < 50
16 | Cc1nc2nc([C@@H]3CCO[C@H](c4cnn(CCF)c4)C3)nc(-c3ccc(F)cc3F)c2nc1C [Example 149, 4-(2,4-difluorophenyl)-2-((2S,4R)-2-(1-(2-fluoroethyl)-1H-pyrazol-4-yl)tetrahydro-2H-pyran-4-yl)-6,7-dimethylpteridine] |  | 500 to 3000
17 | Cc1cc([C@H]2C[C@@H](c3cc(-c4ccc(Cl)cc4F)c4cc(C)c(C)nc4n3)CCO2)ccn1 [Example 184, 5-(4-chloro-2-fluorophenyl)-2,3-dimethyl-7-((2R,4S)-2-(2-methylpyridin-4-yl)tetrahydro-2H-pyran-4-yl)-1,8-naphthyridine] |  | < 50
18 | Cc1nc2nc(N3C[C@@H](C4CC4)O[C@@H](c4cnn(C(F)F)c4)C3)nc(-c3ccc(F)cc3F)c2nc1C (stereo in doubt) [Example I-1702, (2R,6S)-2-cyclopropyl-6-[1-(difluoromethyl)pyrazol-4-yl]-4-[4-(2,4-difluorophenyl)-6,7-dimethyl-pteridin-2-yl]morpholine] | 50 to 500 | 
19 | Cc1cc([C@@H]2C[C@H](c3cc(-c4ccc(Cl)cc4F)c4cc(C)c(C)nc4n3)CCO2)ccn1 [Example 185, 5-(4-chloro-2-fluorophenyl)-2,3-dimethyl-7-((2S,4R)-2-(2-methylpyridin-4-yl)tetrahydro-2H-pyran-4-yl)-1,8-naphthyridine] |  | 500 to 3000
20 | Cc1cc([C@H]2C[C@@H](c3nc(-c4ccc(Cl)c(F)c4F)c4ncc(C)nc4n3)CCO2)ccn1 (racemic) [Example 89, 4-(4-chloro-2,3-difluorophenyl)-7-methyl-2-(2-(2-methylpyridin-4-yl)tetrahydro-2H-pyran-4-yl)pteridine] |  | < 50
21 | Cc1nc2nc([C@@H]3CCO[C@H](c4cnn(C5CC5)n4)C3)nc(-c3ccc(F)cc3F)c2nc1C [Example 154, 2-((2S,4R)-2-(2-cyclopropyl-2H-1,2,3-triazol-4-yl)tetrahydro-2H-pyran-4-yl)-4-(2,4-difluorophenyl)-6,7-dimethylpteridine] |  | 50 to 500
22 | Cc1nc2nc(N3C[C@@H](C)O[C@@H](c4cnn(C5CC5)c4)C3)cc(-c3ccc(Cl)cc3F)c2nc1C [Example I-1076, (2S,6R)-4-[8-(4-chloro-2-fluoro-phenyl)-2,3-dimethyl-pyrido[2,3-b]pyrazin-6-yl]-2-(1-cyclopropylpyrazol-4-yl)-6-methyl-morpholine] | < 50 | 
